Test results as given in US9512138B2, “Compositions and methods for treating cancer” (The Regents of the University of California, priority 2012, dated 2016).
Entries after “also recorded” stand apart in the source; their conditions may differ. Where a name gives a salt, the structure may show the parent alone.

Columns and labels:
[1] = system: H157 NSCLC cells (bulk and CSC-subpopulations); test: Proliferation of NSCLC bulk cells and CSC subpopulations; assay type: cell-based, human; details: bulk cell preparations and CSC-subpopulations; drug dose 20 micromolar; P<0.05 vs control
Description: FIG. 4. […] JD201 drug dose=20 micromolar.
Lung cancer is the leading cause of cancer death in men and women worldwide. The poor prognosis of advanced non-small cell lung cancer (NSCLC) is due, in part, to emergence of tumor resistance to chemotherapy. […] If such minute subsets of CSC drive tumor formation and drug resistance, therapies targeting the bulk tumor mass but not CSC will fail. […] We identified CD133+/ALDH+ tumor stem/progenitor cells from human lung cancer cells in vitro using established Aldefluor assays in combination with labeled anti-CD133 antibodies. […] The antitumor effect of PTL may be due to its action as a potent inhibitor of nuclear factor-KB (NF-κB), which is markedly activated by chemotherapy. To target CSC and suppress tumor progression, we synthesized and tested novel analogs of PTL with improved antitumor properties and aqueous solubility. […] Dose-dependent increments of PTL analogs increase apoptosis of CSC when compared with bulk cells. […] Using Western blots, we find that PTL congeners inhibit phosphorylation of the p65 subunit of phospho-NF-κB and activation of IKKα/β. […]
Analogues of parthenolide were prepared and purified (FIG. 8) and assessed for antitumor efficacy, to develop the best agents for clinical use. […]

[2] = system: MCF-7/HER2 cells; test: Proliferation of tamoxifen-resistant MCF-7/HER2 cells (cell counts); details: 72 hours; for proliferation of MCF-7/HER2 cells: 0.1-50 micromolar, cell counts, P<0.001 vs controls
Procedure: Assays for Tumor Cell Proliferation. […] Cell counts and viability tests (Trypan blue) will be done every 24 hr for 2-33 days. After 48-72 hr, proliferation was assessed by cell counts.

[3] = system: A549 NSCLC xenografts; test: A549 NSCLC xenografts in immunodeficient mice; assay type: in vivo
[4] = system: A549, H23, H2122 and H1975 NSCLC cells; test: MTS cell viability/proliferation assay in NSCLC cell lines, 72 h; assay type: cell-based, human; details: for growth inhibition at 10 μM / growth inhibition at 100 μM: A549, H23, H2122, H1975; for inhibitory activity relative to other analogues: FIG. 5, 0.1-100 μM
Procedure: FIG. 5. Parthenolide analogues JD201-JD210 suppress human lung tumor cell proliferation in vitro. A549, H23, H2122 and H1975 NSCLC cells were treated with increasing concentrations of drugs (0.1-100 μM). After 72 h cell viability was assessed by MTS assay. Viable cells are expressed as percentage of vehicle control. P<0.01 (**), versus control group, P<0.05 (*), versus control group. Natural occurring parthenolide (PTL), parthenolide analogues JD201 (DMAPT)-JD210. Parthenolide analogues inhibit female (H1975, H2122) and male (H23, A549) NSCLC cell proliferation.
To determine the effect of parthenolide analogues in lung cancer cell proliferation we tested two male (A549, H23) and two female (H2122, H1975) lung cancer cell lines with increasing concentrations of parthenolide analogues (0.1, 1, 10 and 100 μM) for 72 hours.

[5] = system: NF-κB/p65 phosphorylation; test: Western blot of phospho-NF-κB/p65 in H23 cells; assay type: cell-based, human; details: for phosphorylation of the p65 subunit of NF-κB: 10 μM, 60 min (FIG. 7); for phosphorylation of NF-κB/p65: 10 µM, 60 min (FIG. 13)
Procedure: FIG. 7. […] After 60 min Western blot were performed using anti-phospho-NF-κB/p65 antibody (Cell Signaling Technology #3031). Membranes were stripped and re-probed with antibody against total NF-κB/p65 (CST #3037).
After 60 min, Western blots were done using anti-phospho-NFκB/p65 antibody (Cell Signaling).
Upon confirming that parthenolide analogues can inhibit NSCLC cell proliferation, induce cell death and enhance the cytotoxicity of chemotherapy, we began to investigate potential cellular mechanisms that may underlie this process. For example, we used Western Blot methods to determine phosphorylation of the p65 subunit of NF-κB. H23 cells were incubated in the presence of vehicle control or 10 μM concentration of the parthenolide derivatives (JD 201, 202, 203, 204) for 60 min. After treatment, cells were collected and homogenized in lysis buffer. Extracts were electrophoresed on 4-20% gradient SDS-PAGE gels and transferred to nitrocellulose membranes. Blots were probed with anti-phospho-NF-κB/p65 and NF-κB/p65 for a loading control.

[6] = system: cancer stem cells (CSC) derived from NSCLC (H157); test: Annexin-V apoptosis assay in lung cancer stem cells; assay type: cell-based, human; details: compared with bulk NSCLC cells, 3 independent experiments
Procedure: FIG. 3. […] A comparison is performed using bulk NSCLC cells. Results based on annexin-V assays in 3 independent experiments.
Analogues of parthenolide were prepared and purified (FIG. 8) and assessed for antitumor efficacy, to develop the best agents for clinical use. Responses of CSC-like subsets, bulk tumor cells and normal lung epithelial cells to parthenolide (PTL) analogues alone and with chemotherapy are ongoing, with assessments by TUNEL and Annexin-V assay for apoptosis (13) (FIG. 3) and cell proliferation (FIG. 4).

[7] = system: NF-κB/p65 phosphorylation; test: Western blot of cisplatin-mediated phospho-NF-κB/p65 in A549 cells; assay type: cell-based, human; details: 5 μM cisplatin and/or 20 μM analog, time course
Procedure: FIG. 9. […] Western blots were then performed using anti-phospho-NF-κB/p65 antibody (Cell Signaling Technology #3036) and anti-phospho-IκBα antibody (CST #2859). Membranes were then stripped and reprobed with antibody against total NF-κB/p65 (CST #3987) and antibody against total IκBα (CST #4814).

[8] = system: cancer cells; test: Structure-activity study of antitumor activity; details: compared to other known parthenolide derivatives such as DMAPT
Description: We have developed a set of novel analogues of parthenolide which have both improved aqueous solubility and antitumor properties. An extensive structure-activity study was done to investigate parthenolide and its analogues. […] These water-soluble compounds, for example analog JD206, may be conjugated to sugars or peptides that may be selectively targeted to cancer cells, particularly cancer stem cells.

[9] = system: SKBR3/TZR cells; test: Proliferation of trastuzumab-resistant SKBR3/TZR cells; assay type: cell-based, human; design: dose or concentration left out as unconfirmed; details: 0.1 to 50 micromolar alone or with trastuzumab, 72 hours
Procedure: Assays for Tumor Cell Proliferation. […] Cell counts and viability tests (Trypan blue) will be done every 24 hr for […]. After 48-72 hr, proliferation was assessed by cell counts.
The human breast cancer cell line SKBR3 (ATCC) was obtained from the American Type Culture Collection (ATCC). Unless otherwise stated, monolayer cultures of SKBR3 were maintained in Dulbeccos' Modified Eagle's Media (DMEM):F12 medium with 10% FBS.

[10] = system: ELT3 cells; test: Proliferation of ELT3 cells (TSC-related disease model); assay type: cell-based, rat; details: 72 hours, IIA medium with 1% FBS, cell counts
Procedure: (§1) FIG. 19. […] Cells were counted and plated and then treated with parthenolide analogue JD203 or control for 72 hours using IIA medium with 1% FBS. At the end of the experiments, cell proliferation was quantitated based on cell counts. Experimental results (n=3) shown as % control (mean±SE).
(§2) We have tested inhibitory activity of parthenolide analogues using cell models for TSC-related proliferative disease. The ELT3 cells are a TSC2-null smooth muscle-derived cell line from a rat uterine leiomyoma and often used as a model for lymphangioleiomyomatosis (LAM) and other TSC-related proliferative diseases (75,76). Angiomyolipoma cells (AML) that have inactivating mutations in both alleles of the TSC2 gene were also used as an alternate cell model (77,78). Cells were routinely cultured in IIA complete medium (50% DMEM, 50% F-12, […] NaHCO3, […] FeSO4, 50 nM sodium selenite, […] insulin, 200 nM hydrocortisone, […] transferrin, 1 nM triiodothyronine, 10 mU/ml vasopressin, 10 nM cholesterol, 10 ng/ml epidermal growth factor) containing 15% FBS. For study of proliferation, cells were incubated for 3 days in IIA medium containing 1% FBS. Results of these experiments indicate that parthenolides may also have utility in the treatment of TSC-related proliferative diseases that are not classified as malignancies.

[11] = system: MCF-7/TAMR breast cancer cells; test: Proliferation of tamoxifen-resistant MCF-7/TMR (TAM-R) cells; assay type: cell-based, human; details: analogue at varying doses plus tamoxifen 1×10^-7 M, 48 hours; P<0.01
Procedure: MCF-7/CON cells are tamoxifen-sensitive, while MCF-7/HER2 and MCF-7/TMR cells are known to be tamoxifen-resistant (28,61,66,67). Except for TMR (64,68), cells were routinely cultured in RPMI 1640 media with 10% heat-inactivated FBS (28,64,66). For E2-free conditions, media were changed 48 h before studies to phenol-red free RPMI 1640 with 1% dextran-coated, charcoal-treated (DCC) FBS. TMR cells were derived by long-term continuous exposure of cells to 10^−7 M 4-hydroxy-tamoxifen by established methods (64,68) and were maintained with 10^−7 M 4-hydroxytamoxifen in medium. Levels of ERα and HER2 expression in these several cell lines were determined by use of Western blot methods.
Assays for Tumor Cell Proliferation. Breast tumor cells were be grown in RPMI 1640 media with 10% heat-inactivated FBS (except for TMR and TZR cells as noted above). For estrogen-free conditions, medium were changed 48 h before studies to phenol-red free RPMI 1640 with 1% dextran-coated, charcoal-treated (DCC) FBS, then treated with selected reagents. Cell counts and viability tests (Trypan blue) will be done every 24 hr for […]. After 48-72 hr, proliferation was assessed by cell counts.

[12] = Aqueous solubility; assay type: physicochemical
[13] = system: angiomyolipoma (AML) cells; test: Proliferation of angiomyolipoma (AML) cells; assay type: cell-based; details: 72 hours, IIA medium with 1% FBS, cell counts
Procedure: as §1, §2

Row | SMILES | proliferation of NSCLC cells [1] | proliferation of MCF-7/HER2 cells [2] | tumor progression ([3]; oral gavage 100 mg/kg/day for 21 days vs vehicle control) | tumor volumes ([3]; oral gavage 100 mg/kg/day for 21 days, vehicle controls 252±31 mm^3) | growth inhibition at 10 μM [4] | growth inhibition at 100 μM [4] | inhibitory activity relative to other analogues [4] | phosphorylation of the p65 subunit of NF-κB ([5]; listed as 201) | phosphorylation of the p65 subunit of NF-κB ([5]; listed as JD 201) | phosphorylation of NF-κB/p65 [5] | apoptosis of cancer stem cells (annexin-V) [6] | cisplatin-mediated phosphorylation of NF-κB/p65 [7] | anticancer activity compared to DMAPT (JD201) [8] | proliferation of MCF-7/HER2 cells, combination with tamoxifen ([2]; analogue 0.1 to 50 micromolar with tamoxifen 1×10^-7 M, P<0.01) | proliferation of SKBR3/TZR cells [9] | proliferation of ELT3 cells [10] | proliferation of MCF-7/TAMR cells, combination with tamoxifen [11] | phosphorylation of the p65 subunit of NF-κB [5] | water solubility compared to DMAPT (JD201) [12] | proliferation of angiomyolipoma (AML) cells [13]
1 | C/C1=C\CC[C@@]2(C)O[C@H]2[C@H]2OC(=O)[C@@H](CN(C)C)[C@@H]2CC1 [JD201, (1aR,7aS,8R,10aS,Z)-8-((Dimethylamino)methyl)-1a,5-dimethyl-2,3,6,7,7a,8,10a,10b-octa-hydrooxireno[2′,3′:9,10]cyclodeca[1,2-b]furan-9(1aH)-one, fumaric acid salt, reference compound] | inhibits proliferation | dose-dependent (0.1-50 micromolar) reduction in proliferation | reduction in tumor progression | 55±5 mm^3 | Significant growth inhibition | Significant growth inhibition | greater inhibitory activity than compounds 205 and 207 | inhibit phosphory-lation of NF-κB/p65 | reduced phosphorylation of the p65 subunit of NF-κB | inhibit phosphorylation of NF-κB/p65 | dose-dependent increments in apoptosis |  |  |  |  |  |  |  |  | 
2 | C/C1=C/CC[C@@]2(C)OC2[C@H]2OC(=O)[C@@H](CN(CCO)CCO)[C@@H]2CC1.O=C(O)/C=C/C(=O)O (stereo partly drawn) [JD203, (1aR,7aS,8R,10aS,Z)-8-((Bis(2-hydroxyethyl)amino)methyl)-1a,5-dimethyl-2,3,6,7,7a,8,10a, 10b-octahydrooxireno[2′,3′:9,10]cyclodeca[1,2-b]furan-9(1aH)-one, fumaric acid salt] |  | dose-dependent (0.1-50 micromolar) reduction in proliferation |  |  | Significant growth inhibition | Significant growth inhibition | greater inhibitory activity than compounds 205 and 207 |  |  | inhibit phosphorylation of NF-κB/p65 |  | inhibit cisplatin-mediated phosphorylation of NF-κB/p65 | strong anticancer activity | greater reduction in cell proliferation than treatment with the analogue alone | reduces proliferation of SKBRS/TZR cells alone and in combination with trastuzumab | inhibits proliferation | enhanced blockade of tumor cell proliferation; also recorded: promotes antitumor effects of tamoxifen | reduced phosphorylation of the p65 subunit of NF-κB; also recorded: inhibit phosphory-lation of NF-κB/p65 | improved water solubility | inhibits proliferation
